Results published in PubChem BioAssay AID1845215 (Molecular Pharmacology Branch, DTP, NCI, 2023).

Test system: SW 1271 complex tumor spheroid viability
Assay: Anticancer human tumor SW 1271 cell line growth inhibition;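 note: spheroids exposed to agents for seven days before readout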;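 for viability, T/C: percent of DMSO vehicle control luminescence so 100% = vehicle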
Conditions: for IC50: curve of first compound; for viability, T/C: stronger effect = lower value
Source text: Multicellular complex tumor spheroid response to DNA repair inhibitors in combination with DNA-damaging drugs
This study explores the anticancer activities of DNA-damaging drugs and inhibitors of DNA damage repair, both as single agents and in combinations. Complex tumor spheroids comprised of malignant cells, endothelial cells and mesenchymal stem cells served as an in vitro model for human solid tumors. This model system incorporates physiologically relevant features and patient-derived or established malignant cell lines with clinically relevant genetic alterations from many tumor types. Twenty-six patient-derived or established malignant cell lines were evaluated representing sarcoma, melanoma, small cell lung cancer (SCLC), non-small cell lung cancer (NSCLC), as well as bladder, ovarian and pancreatic cancers. The concentration ranges selected for each drug and investigational agent were based upon clinically achievable concentrations if the clinical Cmax of the agent was known.
Compounds. The drugs and compounds olaparib (NSC753686), talazoparib (NSC767125), berzosertib (NSC777718), elimusertib (NSC800525), nedisertib (NSC802822), VX-984 (NSC792969), AZD-1390 (NSC803789), temozolomide (NSC362856), topotecan (NSC609699), trabectedin (NSC813783), staurosporine (NSC755774), and gemcitabine (NSC613327) were obtained from the National Cancer Institute (NCI) Developmental Therapeutics Program Chemical Repository. The FDA-approved anticancer drug set is available from the Developmental Therapeutics Program at https://dtp.cancer.gov/organization/dscb/obtaining/available_plates.htm. […] The stock solutions were prepared in dimethyl sulfoxide (DMSO, Sigma-Aldrich, St. Louis, MO, cat. D2650) at 400-fold the tested concentration and stored at -70 degrees C. Prior to their use, the stock solutions were diluted in fresh medium and the final DMSO concentration in the assay was 0.25% (v/v). All drugs and investigational agents were tested over a range starting from a high concentration at or near the clinical Cmax and decreasing in half-log increments. If the clinical Cmax for an agent had not been determined, the highest concentration tested was 10 microM.
Cell Lines. The patient-derived cancer cell (PDC) lines: 156681-154-R-J1-PDC, 283228-195-R-J1-PDC, 287954-098-R-J1-PDC, 292921-168-R-J2-PDC, 349418-098-R-PDC, 425362-245-T-J1-PDC, 556581-035-R-J1-PDC, and BL0293-F563-PDC were received from the NCI Patient-Derived Models Repository (PDMR, https://pdmr.cancer.gov). The established cell lines HS-SY-2 (RRID:CVCL_8719), MPNST, and SYO-1 (RRID:CVCL_7146) were obtained from the Sloan Kettering Institute. The alveolar soft parts sarcoma cell line ASPS-1 (RRID:CVCL_S738) was established at the NCI and grown from internal seed stocks. The following established cell lines were purchased from the American Type Culture Collection (ATCC, Manassas, VA): G-401 (ATCC, cat. CRL-1441, RRID:CVCL_0270), SW982 (ATCC, cat. HTB-93, RRID:CVCL_1734), VA-ES-BJ (ATCC, cat. CRL-2138, RRID:CVCL_1785), NCI-H719 (ATCC, cat. CRL-5837, RRID:CVCL_1582), NCI-H196 (ATCC, cat. CRL-5823, RRID:CVCL_1509), NCI-H841 (ATCC, cat. CRL-5845, RRID:CVCL_1595), NCI-H1618 (ATCC, cat. CRL-5879, RRID:CVCL_1480), NCI-H1876 (ATCC, cat. CRL-5902, RRID:CVCL_1503), DMS 114 (ATCC, cat. CRL-2066; RRID:CVCL_1174), NCI-H211 (ATCC, cat. CRL-5824; RRID:CVCL_1529), and SW 1271 (ATCC, cat. CRL-2177, RRID:CVCL_1716). The small cell lung cancer cell line COR-L88 was purchased from Sigma-Aldrich (cat. 92031917-1VL, RRID:CVCL_1141). The non-small cell lung cancer cell lines NCI-H226 (RRID:CVCL_1544) and NCI-H322M (RRID:CVCL_1557) were established at the NCI and grown from internal seed stocks. Pooled donor human umbilical vein endothelial cells (HUVEC, Lonza, cat. CC-2519) and human mesenchymal stem cells (hMSC, Lonza, cat. PT-2501) were purchased from Lonza (Walkersville, MD).
Cell Culture. All cells were maintained in an incubator at 37 degrees C and 5% CO2 with 95% humidity. […]

[1] = second compound 0.003 µM, first compound 0.00949 µM
[2] = second compound 0.003 µM, first compound 0.03 µM
[3] = second compound 0.003 µM, first compound 0.0949 µM
[4] = second compound 0.003 µM, first compound 0.3 µM
[5] = second compound 0.003 µM, first compound 0.949 µM
[6] = second compound 0.003 µM, first compound 3 µM
[7] = second compound 0.00949 µM, first compound 0.00949 µM
[8] = second compound 0.00949 µM, first compound 0.03 µM
[9] = second compound 0.00949 µM, first compound 0.0949 µM
[10] = second compound 0.00949 µM, first compound 0.3 µM
[11] = second compound 0.00949 µM, first compound 0.949 µM
[12] = second compound 0.00949 µM, first compound 3 µM
[13] = second compound 0.03 µM, first compound 0.00949 µM
[14] = second compound 0.03 µM, first compound 0.03 µM
[15] = second compound 0.03 µM, first compound 0.0949 µM
[16] = second compound 0.03 µM, first compound 0.3 µM
[17] = second compound 0.03 µM, first compound 0.949 µM
[18] = second compound 0.03 µM, first compound 3 µM
[19] = second compound 0.0949 µM, first compound 0.00949 µM
[20] = second compound 0.0949 µM, first compound 0.03 µM
[21] = second compound 0.0949 µM, first compound 0.0949 µM
[22] = second compound 0.0949 µM, first compound 0.3 µM
[23] = second compound 0.0949 µM, first compound 0.949 µM
[24] = second compound 0.0949 µM, first compound 3 µM
[25] = second compound 0.3 µM, first compound 0.00949 µM
[26] = second compound 0.3 µM, first compound 0.03 µM
[27] = second compound 0.3 µM, first compound 0.0949 µM
[28] = second compound 0.3 µM, first compound 0.3 µM
[29] = second compound 0.3 µM, first compound 0.949 µM
[30] = second compound 0.3 µM, first compound 3 µM

| SMILES | IC50 (second compound 0.003 µM) [nM] | IC50 (second compound 0.00949 µM) [nM] | IC50 (second compound 0.03 µM) [nM] | IC50 (second compound 0.0949 µM) [nM] | IC50 (second compound 0.3 µM) [nM] | viability, T/C [3] [%] | viability, T/C [4] [%] | viability, T/C [5] [%] | viability, T/C [6] [%] | viability, T/C [9] [%] | viability, T/C [10] [%] | viability, T/C [11] [%] | viability, T/C [12] [%] | viability, T/C [15] [%] | viability, T/C [16] [%] | viability, T/C [17] [%] | viability, T/C [18] [%] | viability, T/C [21] [%] | viability, T/C [22] [%] | viability, T/C [23] [%] | other results |
| --- | --- | --- | --- | --- | --- | --- | --- | --- | --- | --- | --- | --- | --- | --- | --- | --- | --- | --- | --- | --- | --- |
| CNCc1ccc(-c2cc(-c3nc(-c4ccc(S(=O)(=O)C(C)C)cc4)cnc3N)on2)cc1 + CC[C@@]1(O)C(=O)OCc2c1cc1n(c2=O)Cc2cc3c(CN(C)C)c(O)ccc3nc2-1 | 39.3 | < 9.49 | < 9.49 | < 9.49 | < 9.49 | 21.3 | 27.2 | 5.87 | 0.11 | 19.9 | 11.5 | 9.07 | 0.1 | 20.2 | 34.2 | 12 | 0.09 | 21.6 | 20.5 | 10.8 | viability, T/C [1]: 84.7%; viability, T/C [2]: 60.7%; viability, T/C [7]: 38.9%; viability, T/C [8]: 29%; viability, T/C [13]: 22.5%; viability, T/C [14]: 23.3%; viability, T/C [19]: 23.2%; viability, T/C [20]: 25.8%; viability, T/C [24]: 0.09%; viability, T/C [25]: 18.1%; viability, T/C [26]: 17%; viability, T/C [27]: 20.4%; viability, T/C [28]: 10.8%; viability, T/C [29]: 1.75%; viability, T/C [30]: 7.62% |
| Cc1sc2c(c1C)C(c1ccc(Cl)cc1)=NC(CC(=O)Nc1ccc(O)cc1)c1nnc(C)n1-2 (stereo not given) + CC[C@@]1(O)C(=O)OCc2c1cc1n(c2=O)Cc2cc3c(CN(C)C)c(O)ccc3nc2-1 | 51.2 | 10.8 | < 9.49 | < 9.49 | < 9.49 | 25.5 | 3.11 | 1.06 | 1.11 | 12.8 | 2.4 | 1.61 | 1.61 | 14.6 | 2.67 | 1.56 | 1.13 | 13.2 | 3.31 | 1.34 | viability, T/C [1]: 81.4%; viability, T/C [2]: 71.3%; viability, T/C [7]: 52.3%; viability, T/C [8]: 32.1%; viability, T/C [13]: 25.2%; viability, T/C [14]: 24.4%; viability, T/C [19]: 29%; viability, T/C [20]: 24.5%; viability, T/C [24]: 2.04%; viability, T/C [25]: 16.9%; viability, T/C [26]: 16.3%; viability, T/C [27]: 7.74%; viability, T/C [28]: 1.97%; viability, T/C [29]: 0.91%; viability, T/C [30]: 0.97% |
| Cn1ncnc1[C@H]1c2n[nH]c(=O)c3cc(F)cc(c23)N[C@@H]1c1ccc(F)cc1 + CC[C@@]1(O)C(=O)OCc2c1cc1n(c2=O)Cc2cc3c(CN(C)C)c(O)ccc3nc2-1 | < 9.49 | < 9.49 | < 9.49 | < 9.49 | < 9.49 | 21.4 | 24.1 | 23.4 | 21.7 | 28.4 | 25.9 | 26.7 | 17.2 | 24.2 | 25.2 | 25 | 18 | 28.1 | 23.7 | 22 | viability, T/C [1]: 27.6%; viability, T/C [2]: 23.9%; viability, T/C [7]: 26.2%; viability, T/C [8]: 27.6%; viability, T/C [13]: 27.7%; viability, T/C [14]: 28.3%; viability, T/C [19]: 22.6%; viability, T/C [20]: 27.9%; viability, T/C [24]: 11.3%; viability, T/C [25]: 11.1%; viability, T/C [26]: 16.5%; viability, T/C [27]: 11.4%; viability, T/C [28]: 9.66%; viability, T/C [29]: 6.32%; viability, T/C [30]: 3.75% |
| O=C(c1cc(Cc2n[nH]c(=O)c3ccccc23)ccc1F)N1CCN(C(=O)C2CC2)CC1 + CC[C@@]1(O)C(=O)OCc2c1cc1n(c2=O)Cc2cc3c(CN(C)C)c(O)ccc3nc2-1 | < 94.9 | < 94.9 | < 94.9 | < 94.9 | < 94.9 | 34.5 | 42.2 | 40.8 | 27.9 | 27 | 27 | 28.1 | 25.3 | 25 | 25.5 | 29.5 | 37.1 | 34.8 | 26.4 | 28.4 | viability, T/C (second compound 0.003 µM, first compound 9.49 µM): 27.4%; viability, T/C (second compound 0.003 µM, first compound 30 µM): 25.8%; viability, T/C (second compound 0.00949 µM, first compound 9.49 µM): 29.2%; viability, T/C (second compound 0.00949 µM, first compound 30 µM): 28.3%; viability, T/C (second compound 0.03 µM, first compound 9.49 µM): 26.1%; viability, T/C (second compound 0.03 µM, first compound 30 µM): 29.7%; viability, T/C [24]: 27.1%; viability, T/C (second compound 0.0949 µM, first compound 9.49 µM): 28.7%; viability, T/C (second compound 0.0949 µM, first compound 30 µM): 28%; viability, T/C [27]: 16.1%; viability, T/C [28]: 13.4%; viability, T/C [29]: 12.1%; viability, T/C [30]: 10.5%; viability, T/C (second compound 0.3 µM, first compound 9.49 µM): 19%; viability, T/C (second compound 0.3 µM, first compound 30 µM): 8.08% |
